What was measured:
[1] = test system: P-450 2E1; settings: treatment of rats; cited from earlier work
[2] = test system: acetaminophen-induced hepatotoxicity; experiment: animal or person; settings: for GPT / LDH / Survival / Extent of liver damage: 25 mg/kg oral
From the text: Blood samples were obtained from the jugular vein of CO2 -anesthetizedanimals. The blood was allowed to clot at room temperature and serum was separated by centrifugation. […] Biochem. Biophys.
Randomly-selected samples of the major hepatic lobe were fixed in 10% buffered formalin for histological evaluation. Samples were subsequently embedded in Paraplast (Fisher Scientific) and sectioned at 6 μm on a rotary microtome. Tissue sections were stained with hematoxylin-eosine-phloxine for examination. Extent of tissue damage was determined using a Presage CV-6 Image Analysis System (Advanced Imaging Concepts, Inc.). Images of randomly-selected slides (3 slides/animal, 2-3 animals/group) containing full cross sections of the major hepatic lobe were projected onto a computer screen and the image captured. The areas of damage were then outlined on the screen and the areas quantated using interactive software. The area of damage was shown as a percentage of the total hepatic area for each section. All determinations were made without knowledge of treatment group.
Data were analyzed by the Newman-Keuls multiple comparison procedure on the rank score analysis.
All experiments were replicated at least once.
As a Comparative Example, 300 mg/kg N-acetylcysteine was also administered immediately after administration of 0.2 g/kg acetaminophen.
As a Comparative Example, 300 mg/kg N-acetylcysteine was also administered 1 hour after administration of 0.2 g/kg acetaminophen.

[3] = test system: hepatotoxicity of N-nitrosodimethylamine; settings: pre-treatment of rats; cited from earlier work
[4] = test system: p-nitrophenol hydroxylase; settings: isolated rat liver microsomes; cited from earlier work
[5] = test system: 1,2-dimethylhydrazine-induced hepatotoxicity and carcinogenesis; settings: rats; cited from earlier work
[6] = test system: carbon tetrachloride hepatotoxicity; settings: cited from earlier work
[7] = test system: P-450 2E1; settings: isolated rat liver microsomes; cited from earlier work
[8] = test system: acetaminophen-induced hepatotoxicity; experiment: Protective effect against acetaminophen overdose in rats (serum GPT, LDH, liver damage); format: in vivo, rat (male Fisher 344)
Procedure: Brady et al., "Effect of […] […] Biochem. […] Extent of tissue damage was determined using a […]-6 Image Analysis System (Advanced Imaging Concepts, Inc.). […] All determinations were made without knowledge of treatment group. […] All experiments were replicated at least once.

[9] = immediately (0 min) after APAP 0.2 g/kg
[10] = 50 mg/kg oral, 1 hour after APAP 0.4 g/kg, mean ± SD of five rats

For C=CCSCC=C [DAS, diallyl sulfide], the “liver microsomal P-450 2E1-dependent (NDMA demethylase) activity” value [1] is given as “decreased”, the GPT ([2]; 20 min after APAP 0.2 g/kg) is given as 158 ± 41 U/L and the LDH ([2]; 20 min after APAP 0.2 g/kg) is given as 2374 ± 3533 U/L. For the same molecule, the Survival ([2]; 20 min after APAP 0.2 g/kg) was 5/5, the “Extent of liver damage” value ([2]; 1 hour after APAP 0.2 g/kg) was 16-39% and the GPT ([2]; 1 hour after APAP 0.2 g/kg) was 179 ± 2 U/L. The LDH ([2]; 1 hour after APAP 0.2 g/kg) was 15609 ± 7143 U/L, the Survival ([2]; 1 hour after APAP 0.2 g/kg) was 3/5 and the “Extent of liver damage” value [2, 9] was 8-17%. The GPT [2, 9] was 143 ± 50 U/L, the LDH [2, 9] was 1899 ± 1724 U/L and the Survival [2, 9] was 5/5. The “protection against acetaminophen toxicity” value ([2]; 25 mg/kg, immediately after acetaminophen, mice) was “although preventing the elevation of the LDH level, only partially prevented liver damage and had little or no effect on the elevated serum GPT level”, the minimal effective dose ([2]; Mus musculus, read-out: low dose at which protective effect was demonstrated) was 5 mg/kg and the “inhibition of hepatotoxicity of N-nitrosodimethylamine” value [3] was “inhibited the hepatotoxicity”. The “inhibition of p-nitrophenol hydroxylase” value [4] was “competitively”, the “protection against 1,2-dimethylhydrazine-induced hepatotoxicity and carcinogenesis” value [5] was “protect toxicity” and the “inhibition of hepatotoxicity of CCl4” value ([6]; pre-treatment of rats) was “inhibited the hepatotoxicity”. The “protection against carbon tetrachloride hepatotoxicity” value ([6]; rat, in vivo) was “protect toxicity associated with carbon tetrachloride hepatotoxicity”, the “inhibition of P-450 2E1-catalyzed NDMA demethylase” value [7] was “competitively” and the “Extent of liver damage” value ([8]; 50 mg/kg oral, 1 hour after APAP 0.4 g/kg) was 5-13%. For the same molecule, the GPT [8, 10] was 70 ± 13 U/L, the LDH [8, 10] was 220 ± 82 U/L and the protection against hepatotoxicity ([8]; 50 mg/kg, 1 hr after APAP, rats) was “prevented the elevation of serum GPT and LDH levels, but did not completely prevent liver damage”. The minimal effective dose ([8]; Rattus norvegicus, rats, read-out: low dose at which protective effect was demonstrated) was 5 mg/kg.
